Measured values published in ChEMBL document CHEMBL1649532, “Trypanocidal activity of 8-methyl-5'-{[(Z)-4-aminobut-2-enyl]-(methylamino)}adenosine (Genz-644131), an adenosylmethionine decarboxylase inhibitor” (Antimicrob Agents Chemother, 2009).
≈ marks a conversion by molar mass, not a printed value. Calls of active or inactive are those of the source. The rule behind the calls is not given here.

Columns and labels:
[1] = test system: Trypanosoma brucei rhodesiense; assay: Trypanocidal activity against Trypanosoma brucei rhodesiense KETRI2002 infected in mouse assessed as cure rate at 50 mg/kg, ip QD administered 24 hrs postinfection; format: functional; conditions: route intraperitoneal
[2] = test system: Trypanosoma brucei rhodesiense; assay: Trypanocidal activity against Trypanosoma brucei rhodesiense KETRI1992 infected in mouse assessed as cure rate at 25 mg/kg, ip BID administered 24 hrs postinfection; format: functional; conditions: route intraperitoneal
[3] = test system: Trypanosoma brucei rhodesiense; assay: Trypanocidal activity against Trypanosoma brucei rhodesiense KETRI1992 infected in mouse assessed as cure rate at 50 mg/kg, ip BID administered 24 hrs postinfection; format: functional; conditions: route intraperitoneal
[4] = test system: Trypanosoma brucei brucei; assay: Trypanocidal activity against Trypanosoma brucei brucei 667 infected in mouse assessed as average day of relapse of trypanosomal infection at 10 mg/kg, ip BID for 4 days; format: functional; conditions: route intraperitoneal
[5] = test system: Trypanosoma brucei brucei; assay: Trypanocidal activity against Trypanosoma brucei brucei 667 infected in mouse assessed as average day of relapse of trypanosomal infection at 10 mg/kg, ip BID for 21 days; format: functional; conditions: route intraperitoneal
[6] = test system: Trypanosoma brucei brucei; assay: Trypanocidal activity against Trypanosoma brucei brucei 667 infected in mouse assessed as average day of relapse of trypanosomal infection at 25 mg/kg, ip BID for 7 days; format: functional; conditions: route intraperitoneal
[7] = test system: Trypanosoma brucei brucei; assay: Trypanocidal activity against Trypanosoma brucei brucei 667 infected in mouse assessed as average day of relapse of trypanosomal infection at 100 mg/kg, ip BID for 7 days; format: functional; conditions: route intraperitoneal
[8] = test system: Trypanosoma brucei brucei; assay: Trypanocidal activity against Trypanosoma brucei brucei 667 infected in mouse assessed as average day of relapse of trypanosomal infection at 10 mg/kg, ip BID for 14 days; format: functional; conditions: route intraperitoneal
[9] = test system: Trypanosoma brucei brucei; assay: Trypanocidal activity against Trypanosoma brucei brucei 667 infected in mouse assessed as average day of relapse of trypanosomal infection at 25 mg/kg, ip BID for 14 days; format: functional; conditions: route intraperitoneal
[10] = test system: Trypanosoma brucei rhodesiense; assay: Trypanocidal activity against Trypanosoma brucei rhodesiense KETRI2538 after 48 hrs; format: functional, organism-based; conditions: KETRI2538, 48 h
[11] = test system: Trypanosoma brucei rhodesiense; assay: Ratio of Kinact to Kiapp for Trypanosoma brucei rhodesiense AdoMetDC
[12] = test system: Trypanosoma brucei brucei; assay: Trypanocidal activity against Trypanosoma brucei brucei EATRO infected in mouse assessed as mean survival time at 2 mg/kg, ip QD for 4 days; format: functional; conditions: route intraperitoneal
[13] = test system: Trypanosoma brucei brucei; assay: Trypanocidal activity against Trypanosoma brucei brucei EATRO infected in mouse assessed as mean survival time at 2.5 mg/kg, ip QD for 4 days; format: functional; conditions: route intraperitoneal
[14] = test system: Trypanosoma brucei brucei; assay: Trypanocidal activity against Trypanosoma brucei brucei EATRO infected in mouse assessed as mean survival time at 5 mg/kg, ip QD for 4 days; format: functional; conditions: route intraperitoneal
[15] = test system: Trypanosoma brucei brucei; assay: Trypanocidal activity against Trypanosoma brucei brucei EATRO infected in mouse assessed as mean survival time at 10 mg/kg, ip QD for 4 days; format: functional; conditions: route intraperitoneal
[16] = test system: Trypanosoma brucei brucei; assay: Trypanocidal activity against Trypanosoma brucei brucei EATRO infected in mouse assessed as mean survival time at 50 mg/kg, ip QD for 4 days; format: functional; conditions: route intraperitoneal
[17] = test system: Trypanosoma brucei brucei; assay: Trypanocidal activity against Trypanosoma brucei brucei EATRO infected in mouse assessed as protection against trypanosomal infection at 2 mg/kg, ip QD for 4 days; format: functional, organism-based; parameters: dose 2 mg/kg
[18] = test system: Trypanosoma brucei brucei; assay: Trypanocidal activity against Trypanosoma brucei brucei EATRO infected in mouse assessed as mean survival time at 2.5 mg/kg, ip BID for 4 days; format: functional; conditions: route intraperitoneal
[19] = test system: Trypanosoma brucei brucei; assay: Trypanocidal activity against Trypanosoma brucei brucei EATRO infected in mouse assessed as mean survival time at 5 mg/kg, ip BID for 4 days; format: functional; conditions: route intraperitoneal
[20] = test system: Trypanosoma brucei brucei; assay: Trypanocidal activity against Trypanosoma brucei brucei EATRO infected in mouse assessed as mean survival time at 10 mg/kg, ip BID for 4 days; format: functional; conditions: route intraperitoneal
[21] = test system: Trypanosoma brucei brucei; assay: Trypanocidal activity against Trypanosoma brucei brucei EATRO infected in mouse assessed as mean survival time at 25 mg/kg, ip BID for 4 days; format: functional; conditions: route intraperitoneal
[22] = test system: Trypanosoma brucei brucei; assay: Trypanocidal activity against Trypanosoma brucei brucei EATRO infected in mouse assessed as protection against trypanosomal infection at 5 mg/kg, ip QD for 4 days; format: functional, organism-based; parameters: dose 5 mg/kg
[23] = test system: Trypanosoma brucei brucei; assay: Trypanocidal activity against Trypanosoma brucei brucei EATRO infected in mouse assessed as protection against trypanosomal infection at 5 mg/kg, ip BID for 4 days; format: functional, organism-based; parameters: dose 5 mg/kg
[24] = test system: Trypanosoma brucei brucei; assay: Trypanocidal activity against Trypanosoma brucei brucei EATRO infected in mouse assessed as protection against trypanosomal infection at 50 mg/kg, ip QD for 4 days; format: functional, organism-based; parameters: dose 50 mg/kg
[25] = test system: Trypanosoma brucei brucei; assay: Trypanocidal activity against Trypanosoma brucei brucei EATRO infected in mouse assessed as cure rate at 1 mg/kg, ip QD for 4 days; format: functional; conditions: route intraperitoneal
[26] = test system: Trypanosoma brucei rhodesiense; assay: Trypanocidal activity against Trypanosoma brucei rhodesiense KETRI2002 infected in mouse assessed as average survival time at 25 mg/kg, ip QD administered 24 hrs postinfection; format: functional; conditions: route intraperitoneal
[27] = test system: Trypanosoma brucei rhodesiense; assay: Trypanocidal activity against Trypanosoma brucei rhodesiense KETRI2002 infected in mouse assessed as average survival time at 25 mg/kg, ip BID administered 24 hrs postinfection; format: functional; conditions: route intraperitoneal
[28] = test system: Trypanosoma brucei rhodesiense; assay: Trypanocidal activity against Trypanosoma brucei rhodesiense KETRI1992 infected in mouse assessed as protection against trypanosomal infection at 10 mg/kg, ip QD administered 24 hrs postinfection; format: functional, organism-based; parameters: dose 10 mg/kg
[29] = test system: Trypanosoma brucei rhodesiense; assay: Trypanocidal activity against Trypanosoma brucei rhodesiense KETRI1992 infected in mouse assessed as protection against trypanosomal infection at 25 mg/kg, ip QD administered 24 hrs postinfection; format: functional, organism-based; parameters: dose 25 mg/kg
[30] = test system: Trypanosoma brucei rhodesiense; assay: Trypanocidal activity against Trypanosoma brucei rhodesiense KETRI1992 infected in mouse assessed as protection against trypanosomal infection at 50 mg/kg, ip QD administered 24 hrs postinfection; format: functional, organism-based; parameters: dose 50 mg/kg
[31] = test system: Trypanosoma brucei rhodesiense; assay: Trypanocidal activity against Trypanosoma brucei rhodesiense KETRI1992 infected in mouse assessed as protection against trypanosomal infection at 10 mg/kg, ip BID administered 24 hrs postinfection; format: functional, organism-based; parameters: dose 10 mg/kg
[32] = test system: Trypanosoma brucei rhodesiense; assay: Trypanocidal activity against Trypanosoma brucei rhodesiense KETRI1992 infected in mouse assessed as average survival time at 50 mg/kg, ip QD administered 24 hrs postinfection; format: functional; conditions: route intraperitoneal
[33] = test system: Trypanosoma brucei rhodesiense; assay: Trypanocidal activity against Trypanosoma brucei rhodesiense KETRI243 infected in mouse assessed as protection against trypanosomal infection at 50 mg/kg, ip QD administered 24 hrs postinfection; format: functional, organism-based; parameters: dose 50 mg/kg
[34] = test system: Trypanosoma brucei rhodesiense; assay: Trypanocidal activity against Trypanosoma brucei rhodesiense KETRI243 infected in mouse assessed as protection against trypanosomal infection at 10 mg/kg, ip BID administered 24 hrs postinfection; format: functional, organism-based; parameters: dose 10 mg/kg
[35] = test system: Trypanosoma brucei rhodesiense; assay: Trypanocidal activity against Trypanosoma brucei rhodesiense KETRI243 infected in mouse assessed as average survival time at 10 mg/kg, ip QD administered 24 hrs postinfection; format: functional; conditions: route intraperitoneal
[36] = test system: Trypanosoma brucei rhodesiense; assay: Trypanocidal activity against Trypanosoma brucei rhodesiense KETRI243 infected in mouse assessed as average survival time at 25 mg/kg, ip QD administered 24 hrs postinfection; format: functional; conditions: route intraperitoneal
[37] = test system: Trypanosoma brucei rhodesiense; assay: Trypanocidal activity against Trypanosoma brucei rhodesiense KETRI243 infected in mouse assessed as average survival time at 10 mg/kg, ip BID administered 24 hrs postinfection; format: functional; conditions: route intraperitoneal
[38] = test system: Trypanosoma brucei rhodesiense; assay: Trypanocidal activity against Trypanosoma brucei rhodesiense KETRI243 infected in mouse assessed as average survival time at 25 mg/kg, ip BID administered 24 hrs postinfection; format: functional; conditions: route intraperitoneal
[39] = test system: Trypanosoma brucei rhodesiense; assay: Trypanocidal activity against Trypanosoma brucei rhodesiense KETRI2002 infected in mouse assessed as cure rate at 10 mg/kg, ip BID administered 24 hrs postinfection; format: functional; conditions: route intraperitoneal

Cc1nc2c(N)ncnc2n1[C@@H]1O[C@H](CN(C)C/C=C\CN)[C@@H](O)[C@H]1O
Activity [1]: 80% | Activity [2]: 60% | Activity [3]: 100% | MST [4]: 36 days | MST [5]: 61.8 days | MST [6]: 61.7 days | MST [7]: 68.8 days | MST [8]: 59.8 days | MST [9]: 70.3 days | IC50 [10]: 0.3 ng/mL (≈ 0.825 nM) | Activity [11]: 7.8 min⁻¹ M⁻¹ | MST [12]: >35 days | MST [13]: 21 days | MST [14]: >35 days | MST [15]: >35 days | MST [16]: >35 days | Activity [17]: Active | MST [18]: >35 days | MST [19]: >35 days | MST [20]: >35 days | MST [21]: >35 days | Activity [22]: Active | Activity [23]: Active | Activity [24]: Active | Activity [25]: >50% | MST [26]: 20 days | MST [27]: 19.3 days | Activity [28]: inactive | Activity [29]: inactive | Activity [30]: inactive | Activity [31]: inactive | MST [32]: 20.2 days | Activity [33]: inactive | Activity [34]: inactive | MST [35]: 13.2 days | MST [36]: 14 days | MST [37]: 14.8 days | MST [38]: 18.75 days | Activity [39]: 60%
